Test results reported in patent publication US10766902B2, “Wee-1 inhibiting pyrazolopyrimidinone compounds” (ALMAC DISCOVERY LIMITED, priority 2016, dated 2020).

Target: Wee-1 kinase (Homo sapiens (Human), UniProt P30291)
Test: Measurement of Wee-1 kinase activity (ADP-Glo luminescence)
Assay type: biochemical
Conditions: read-out: Wee1 IC50
Description: Method 1: Measurement of Wee-1 Kinase Activity
In the measurement of Wee-1 activity, a commercial peptide Poly(Lys Tyr(4:1)) hydrobromide was purchased from Sigma Aldrich and used as the substrate. Activated Wee-1 kinase was purchased from Invitrogen (PV3817) and an ADP-Glo luminescent kit was purchased from Promega.
All reactions took place in […] volumes in reaction buffer containing 40 mM Tris-HCl and 20 mM magnesium chloride, supplemented with 0.1 mg/mL bovine serum albumin and 2 mM DTT. Compounds were serially diluted in buffer and 5 μL of each concentration pipetted into a white 384 well plate (Sigma Aldrich M6186). A 5 μL aliquot of the Wee-1 enzyme was added to each well and the plate centrifuged for 1 min to ensure mixing of the enzyme and inhibitor.
The plate was incubated at room temperature for 30 minutes before the addition of 2.0 μg/mL of substrate and 30 μM ATP in a 5 μL aliquot. The plate was centrifuged for one minute and incubated for 1 h at RT.
15 μL of ADP-Glo stop reagent was added to each well to quench the reaction and deplete unconverted ATP. The plate was incubated for a further 40 min in the dark at RT.
30 μL of ADP-Glo kinase detection reagent was added to each well, converting ADP to ATP, catalysing the generation of luciferin by luciferase. The plate was shaken for 1 min, and incubated in the dark for an additional hour.
Luminescence from each well was detected using the Biotek Synergy4 HD plate reader and the percentage inhibition of kinase activity calculated for each inhibitor tested. Positive (kinase only) and negative (no kinase) controls were added to each plate to ensure specific interaction of kinase and inhibitor. The IC50 concentration for each inhibitor was calculated by plotting the percentage kinase inhibition against concentration of inhibitor and the curve generated by non-linear regression fitting.

Wee-1 kinase, sequence (P30291 whole entry): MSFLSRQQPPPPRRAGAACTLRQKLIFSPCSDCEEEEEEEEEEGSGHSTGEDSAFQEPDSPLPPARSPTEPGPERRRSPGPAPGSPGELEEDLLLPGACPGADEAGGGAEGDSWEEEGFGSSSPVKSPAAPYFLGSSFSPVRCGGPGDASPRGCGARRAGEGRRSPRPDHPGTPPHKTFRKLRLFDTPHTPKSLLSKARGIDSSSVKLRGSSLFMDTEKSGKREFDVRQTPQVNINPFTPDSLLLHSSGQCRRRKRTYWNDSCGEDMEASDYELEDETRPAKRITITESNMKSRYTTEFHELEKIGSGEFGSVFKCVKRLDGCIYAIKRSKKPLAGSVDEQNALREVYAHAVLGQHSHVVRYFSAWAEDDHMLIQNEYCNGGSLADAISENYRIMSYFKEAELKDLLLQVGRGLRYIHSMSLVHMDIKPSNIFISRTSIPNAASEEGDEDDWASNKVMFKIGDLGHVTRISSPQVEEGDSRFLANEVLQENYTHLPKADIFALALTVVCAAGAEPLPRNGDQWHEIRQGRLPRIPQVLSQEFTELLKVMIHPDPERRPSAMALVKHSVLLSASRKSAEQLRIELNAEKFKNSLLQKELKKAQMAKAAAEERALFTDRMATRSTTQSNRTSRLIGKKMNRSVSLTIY

CC(C)n1c(=O)c2cnc(Nc3ccc(F)cc3)nc2n1-c1cccc(N=S2(=O)CCCC2)n1 [Example 55, 6-[(4-Fluorophenyl)amino]-1-{6-[(1-oxo-1λ^6-thiolan-1-ylidene)amino]pyridin-2-yl}-2-(propan-2-yl)-1H,2H,3H-pyrazolo[3,4-d]pyrimidin-3-one]
IC50: 13.3 nM

CC(C)n1c(=O)c2cnc(Nc3cnn(C)c3)nc2n1-c1cccc(N=S2(=O)CCCC2)n1 [Example 56, 6-[(1-Methyl-1H-pyrazol-4-yl)amino]-1-{6-[(1-oxo-1λ^6-thiolan-1-ylidene)amino]pyridin-2-yl}-2-(propan-2-yl)-1H,2H,3H-pyrazolo[3,4-d]pyrimidin-3-one]
IC50: 18.5 nM

CC(C)n1c(=O)c2cnc(Nc3ccc(N(C)C)cc3)nc2n1-c1cccc(N=S(C)(C)=O)n1 [Example 58, 1-(6-{[Dimethyl(oxo)-λ^6-sulfanylidene]amino}pyridin-2-yl)-6-{[4-(dimethylamino)phenyl]amino}-2-(propan-2-yl)-1H,2H, 3H-pyrazolo[3,4-d]pyrimidin-3-one]
IC50: 0.4 nM

CC(C)n1c(=O)c2cnc(Nc3ccc(N4CCNCC4)cc3)nc2n1-c1cccc(N=S2(=O)CCCC2)n1 [Example 59, 1-{6-[(1-Oxo-1λ^6-thiolan-1-ylidene)amino]pyridin-2-yl}-6-{[4-(piperazin-1-yl)phenyl]amino}-2-(propan-2-yl)-1H,2H,3H-pyrazolo[3,4-d]pyrimidin-3-one]
IC50: 1.2 nM

CC(C)n1c(=O)c2cnc(N(c3ccc(C#N)cc3)c3ccc(C#N)cc3)nc2n1-c1cccc(N=S(C)(C)=O)n1 [Example 60, 4-[(4-Cyanophenyl)[1-(6-{[dimethyl(oxo)-λ^6-sulfanylidene]amino}pyridin-2-yl)-3-oxo-2-(propan-2-yl)-1H,2H,3H-pyrazolo[3,4-d]pyrimidin-6-yl]amino]benzonitrile]
IC50: 760 nM

CC(C)n1c(=O)c2cnc(Nc3ccc(Cl)cc3)nc2n1-c1cccc(N=S(C)(C)=O)n1 [Example 61, 6-[(4-Chlorophenyl)amino]-1-(6-{[dimethyl(oxo)-λ^6-sulfanylidene]amino}pyridin-2-yl)-2-(propan-2-yl)-1H,2H,3H-pyrazolo[3,4-d]pyrimidin-3-one]
IC50: 0.6 nM

C=CCn1c(=O)c2cnc(Nc3ccc(Cl)cc3)nc2n1-c1cccc(N=S(C)(C)=O)n1 [Example 62, 6-[(4-Chlorophenyl)amino]-1-(6-{[dimethyl(oxo)-λ^6-sulfanylidene]amino}pyridin-2-yl)-2-(prop-2-en-1-yl)-1H,2H,3H-pyrazolo[3,4-d]pyrimidin-3-one]
IC50: 0.3 nM

C=CCn1c(=O)c2cnc(NC34CC(C3)C4)nc2n1-c1cccc(N=S(C)(C)=O)n1 [Example 63, 6-({Bicyclo[1.1.1]pentan-1-yl}amino)-1-(6-{[dimethyl(oxo)-λ^6-sulfanylidene]amino}pyridin-2-yl)-2-(prop-2-en-1-yl)-1H,2H,3H-pyrazolo[3,4-d]pyrimidin-3-one]
IC50: 1000 nM

C=CCn1c(=O)c2cnc(Nc3ccc(C(C)(C)C)cc3)nc2n1-c1cccc(N=S(C)(C)=O)n1 [Example 64, 6-[(4-tert-Butylphenyl)amino]-1-(6-{[dimethyl(oxo)-λ^6-sulfanylidene]amino}pyridin-2-yl)-2-(prop-2-en-1-yl)-1H,2H,3H-pyrazolo[3,4-d]pyrimidin-3-one]
IC50: 1.6 nM

CC(C)n1c(=O)c2cnc(Nc3ccc(F)cc3F)nc2n1-c1cccc(N=S(C)(C)=O)n1 [Example 65, 6-[(2,4-Difluorophenyl)amino]-1-(6-{[dimethyl(oxo)-λ^6-sulfanylidene]amino}pyridin-2-yl)-2-(propan-2-yl)-1H,2H,3H-pyrazolo[3,4-d]pyrimidin-3-one]
IC50: 68 nM

C=CCn1c(=O)c2cnc(Nc3ccc(F)c(F)c3)nc2n1-c1cccc(N=S(C)(C)=O)n1 [Example 66, 6-[(3,4-Difluorophenyl)amino]-1-(6-{[dimethyl(oxo)-λ^6-sulfanylidene]amino}pyridin-2-yl)-2-(prop-2-en-1-yl)-1H,2H,3H-pyrazolo[3,4-d]pyrimidin-3-one]
IC50: 0.5 nM
